Reference: patent US20070112018A1, “Treatment of peripheral arterial occlusive disease” (priority 2005, published 2007)
Where two headings read alike, the source gives them in different places.

What was measured:
[1] = Tissue distribution in rats after a single oral dose (Study 6510-109); format: in vivo, rat; details: for Kp: oral, 3 mg/kg, species not given
Procedure: Distribution to the majority of tissues was higher than observed plasma levels.
In rats and dogs, the Vdβ/F following oral administration was 40-80 L/kg. […] The highest mean Cmax observed was in the wall of the GI tract and occurred approximately 1 hour post-dose. […] A large tissue compartment of rifalazil is considered important for efficacy against Chlamydia given the intracellular nature of Chlamydia infection.

[2] = human, in vivo
Procedure: In another study, three dose levels of rifalazil were administered for the treatment of non-gonococcal urethritis in 170 male patients. Doses used were in this study were single-doses of 2.5, 12.5 mg and 25 mg. Males were between 18-45 years of age with signs or symptoms of urethritis, including urethral discharge.

[3] = Phase 1 single-dose study (2.5, 5, 12.5, 25 mg), adverse events; format: in vivo, human
Procedure: Several Phase 1 studies of rifalazil administration have been carried out using 25 mg single doses. In one such study, sixteen patients received single doses of 25 mg. Overall, 75% of patients (12/16) reported treatment-emergent adverse events (AEs). […] However, for all dose groups, the incidence of AEs was higher for females than for males, and this difference was also observed in the placebo group. At 25 mg, […] of females (31/39) and 55% of males (16/29) reported treatment-emergent AEs. The AEs with an incidence greater than or equal to 10% were: […]

[4] = Phase 1 Study ABI-1648-006, multiple oral dose pharmacokinetics; details: for Tmax / AUC / Cmax / half-life: human, plasma; for AUC0-Tau/Dose Mean / Cmax/Dose Mean: normalized to 1 mg/kg
Procedure: Study ABI-1648-006 was conducted to evaluate the PK of single and multiple oral doses of 2.5, 5, 12.5, and 25 mg administered to healthy male and female volunteers.

[5] = Single 25-mg dose under three food conditions in healthy male adults, adverse events; format: in vivo, human
Procedure: In another study, a single 25-mg oral dose of rifalazil was administered to healthy male adults under one of three distinct food conditions: a high fat meal (60% fat), standard meal (30% fat), and under fasting conditions. No placebo-control was used in this study. Twelve subjects were enrolled, 10 of whom received all doses of rifalazil. Although high fat meal conditions result in higher plasma levels of rifalazil, the incidence of AEs was similar across all food conditions. A total of 83% of subjects (10/12) experienced treatment-emergent AEs, all of mild to moderate intensity. Fifty-eight percent were considered by the investigator to be drug-related. The most common reported drug-related AEs were back pain (25%) and headache (17%), and these were reported only in subjects under fed conditions. All other study medication-related AEs were reported by one subject (8%) only.

[6] = human, in vivo; remark: listed apart in the source

## CO[C@H]1/C=C/O[C@@]2(C)Oc3c(C)c(O)c4c(=O)c(c5oc6cc(N7CCN(CC(C)C)CC7)cc(O)c6nc-5c4c3C2=O)NC(=O)/C(C)=C\C=C\[C@H](C)[C@H](O)[C@@H](C)[C@@H](O)[C@@H](C)[C@H](OC(C)=O)[C@@H]1C [rifalazil, 3′-hydroxy-5′-(4-isobutyl-1-piperazinyl) benzoxazinorifamycin]
[1]; rat, liver, read-out: tissue to plasma ratio (AUC), liver
  Kp: 33.7
[1]; rat, testes, read-out: tissue to plasma ratio (AUC), testes
  Kp: 4.9
[1]; rat, wall of the GI tract, rats, single oral 3 mg/kg, at 1 hour
  concentration at 1 h: 5400 ng/g
[1]; rats, single oral 3 mg/kg, at 8-12 hours post dose
  tissue concentration, spleen: 5.1-9.3 μg/gm
[2]
  deaths, serious AEs, or discontinuations due to AEs: No deaths, serious AEs, or discontinuations due to AEs
[2]; male
  incidence of AEs considered possibly related to study drug: 23%
  incidence of clinically significant laboratory abnormalities: 21%
[3]; at 25 mg (16/29)
  males reporting treatment-emergent AEs: 55%
[3]; at 25 mg (31/39)
  females reporting treatment-emergent AEs: 88%
[3]; single dose 25 mg
  incidence of Bacteria in urine: 19%
  incidence of Blood present in urine: 13%
  incidence of Body temperature increased: 25%
  incidence of Headache: 38%
  incidence of Lymphocyte count decreased: 31%
  incidence of Monocyte count increased: 13%
  incidence of Nausea: 13%
  incidence of Neutrophil count increased: 13%
  incidence of Pharyngitis: 13%
  incidence of White blood cells (WBCs) in urine: 19%
[3]; single dose 25 mg, 16 patients
  patients reporting treatment-emergent adverse events: 75%
[4]; both, po
  Tmax: 4 to 6.3 h
[4]; female, oral, 2.5 mg
  AUC: 98.2 ng·h/mL
  Cmax: 7 ng/mL
  Tmax: 4.3 h
  half-life: 140 h
[4]; female, oral, 5 mg
  AUC: 197 ng·h/mL
  Cmax: 14.3 ng/mL
  Tmax: 5.3 h
  half-life: 174 h
[4]; female, oral, 12.5 mg
  AUC: 339 ng·h/mL
  Cmax: 19.1 ng/mL
  Tmax: 6.3 h
  half-life: 86.5 h
[4]; female, po
  half-life: 86 to 140 h
[4]; females, 2.5 mg QD × 5 days
  AUC0-Tau/Dose Mean: 2540.1
  Cmax/Dose Mean: 184.1
[4]; females, 5 mg QD × 5 days
  AUC0-Tau/Dose Mean: 2539.0
  Cmax/Dose Mean: 183.6
[4]; females, 12.5 mg × 2 doses
  AUC0-Tau/Dose Mean: 1614.0
  Cmax/Dose Mean: 90.6
[4]; male, oral, 2.5 mg
  AUC: 178 ng·h/mL
  Cmax: 8.5 ng/mL
  Tmax: 4.3 h
  half-life: 134 h
[4]; male, oral, 5 mg
  AUC: 261 ng·h/mL
  Cmax: 17.3 ng/mL
  Tmax: 4 h
  half-life: 119 h
[4]; male, oral, 12.5 mg
  AUC: 398 ng·h/mL
  Cmax: 20.9 ng/mL
  Tmax: 6.2 h
  half-life: 120 h
[4]; male, po
  half-life: 118 to 134 h
[4]; males, 2.5 mg QD × 5 days
  AUC0-Tau/Dose Mean: 5788.5
  Cmax/Dose Mean: 279.2
[4]; males, 5 mg QD × 5 days
  AUC0-Tau/Dose Mean: 4152.6
  Cmax/Dose Mean: 273.7
[4]; males, 12.5 mg × 2 doses
  AUC0-Tau/Dose Mean: 2357.9
  Cmax/Dose Mean: 124.2
[5]
  AEs considered by the investigator to be drug-related: Fifty-eight
  all other study medication-related AEs (each, one subject): 8%
[5]; all food conditions (10/12)
  subjects experiencing treatment-emergent AEs: 83%
[5]; only under fed conditions
  drug-related back pain: 25%
  drug-related headache: 17%
[6]
  overall extent of metabolism: less than 3 % of the administered dose
